Values quoted from earlier work in PubChem BioAssay AID1259409 (Chemical Carcinogenesis Research Information System (CCRIS), 2018).

Test system: rodent chemically induced tumor inhibition, incidence and multiplicity
Test: CCRIS tumor inhibitor studies

SMILES: CC1=C(/C=C/C(C)=C/C=C/C(C)=C/C(=O)Nc2ccc(O)cc2)C(C)(C)CCC1
- tumour outcome (control, treated, inhibition, significance) (Carcinogen: N-METHYL-N-NITROSOUREA, 684-93-5, Dose [Inhibitor]: 2 MMOL/KG DIET DAILY STARTING 12 D AFTER CARCINOGEN TREATMENT THROUGH ABOUT 8 MO AFTER CARCINOGEN DOSE (STUDY DURATION:, Route [Inhibitor]: ORAL, Species: RAT, Strain/Sex: F344/MALE, Target Tissue: Type of Lesion: COLON: ADENOMA, Dose [Carcinogen]: 2.5 MG 1/WK FOR 2 WK, Promoter: NONE USED): 16/39 (41%), 11/30 (37%), 10%, not significant
- tumour outcome (control, treated, inhibition, significance) (Carcinogen: N-METHYL-N-NITROSOUREA, 684-93-5, Dose [Inhibitor]: 587 MG/KG DIET FROM D 7-20 AFTER CARCINOGEN ADMINISTRATION THEN REDUCED TO 391 MG/KG DIET FOR REMAINDER OF STUDY (STUDY, Route [Inhibitor]: ORAL, Species: RAT, Strain/Sex: SPRAGUE-DAWLEY/FEMALE, Target Tissue: Type of Lesion: MAMMARY GLAND: ADENOCARCINOMA, Dose [Carcinogen]: 20 MG/KG BW ONCE, Promoter: NONE USED): 64%, 50%, 22%, not significant
- tumour outcome (control, treated, inhibition, significance) (Carcinogen: N-METHYL-N-NITROSOUREA, 684-93-5, Dose [Inhibitor]: 587 MG/KG IN DIET FROM D 7-20 AFTER CARCINOGEN DOSE THEN REDUCED TO 391 MG/KG IN DIET FOR REMAINDER OF STUDY (STUDY DURA, Route [Inhibitor]: ORAL, Species: RAT, Strain/Sex: SPRAGUE-DAWLEY/FEMALE, Target Tissue: Type of Lesion: MAMMARY GLAND: ADENOCARCINOMA, Dose [Carcinogen]: 20 MG/KG BW ONCE, Promoter: NONE USED): 64%, 50%, 22%, not significant
- tumour outcome (control, treated, inhibition, significance) (Carcinogen: N-METHYL-N-NITROSOUREA, 684-93-5, Dose [Inhibitor]: O.O3 MMOL 3/WK STARTING 12 D THROUGH ABOUT 8 MO AFTER FIRST CARCINOGEN DOSE (STUDY DURATION: APPROXIMATELY 8 MO), Route [Inhibitor]: INTRARECTAL, Species: RAT, Strain/Sex: F344/MALE, Target Tissue: Type of Lesion: COLON: ADENOCARCINOMA, Dose [Carcinogen]: 2.5 MG 1/WK FOR 2 WK, Promoter: NONE USED): 3/39 (8%), 6/39 (15%), -88%, not significant
- tumour outcome (control, treated, inhibition, significance) (Carcinogen: N-METHYL-N-NITROSOUREA, 684-93-5, Dose [Inhibitor]: O.O3 MMOL 3/WK STARTING 12 D THROUGH ABOUT 8 MO AFTER FIRST CARCINOGEN DOSE (STUDY DURATION: APPROXIMATELY 8 MO), Route [Inhibitor]: INTRARECTAL, Species: RAT, Strain/Sex: F344/MALE, Target Tissue: Type of Lesion: COLON: ADENOMA, Dose [Carcinogen]: 2.5 MG 1/WK FOR 2 WK, Promoter: NONE USED): 11/39 (28%), 23/39 (59%), -111%, p<0.05
- tumour outcome (control, treated, inhibition, significance) (Carcinogen: N-METHYL-N-NITROSOUREA, 684-93-5, Dose [Inhibitor]: O.O3 MMOL 3/WK STARTING 15 D PRIOR TO THROUGH ABOUT 8 MO AFTER FIRST CARCINOGEN DOSE (STUDY DURATION: APPROXIMATELY 8 MO, Route [Inhibitor]: INTRARECTAL, Species: RAT, Strain/Sex: F344/MALE, Target Tissue: Type of Lesion: COLON: ADENOCARCINOMA, Dose [Carcinogen]: 2.5 MG 1/WK FOR 2 WK, Promoter: NONE USED): 3/39 (8%), 5/39 (13%), -63%, not significant
- tumour outcome (control, treated, inhibition, significance) (Carcinogen: N-METHYL-N-NITROSOUREA, 684-93-5, Dose [Inhibitor]: O.O3 MMOL 3/WK STARTING 15 D PRIOR TO THROUGH ABOUT 8 MO AFTER FIRST CARCINOGEN DOSE (STUDY DURATION: APPROXIMATELY 8 MO, Route [Inhibitor]: INTRARECTAL, Species: RAT, Strain/Sex: F344/MALE, Target Tissue: Type of Lesion: COLON: ADENOMA, Dose [Carcinogen]: 2.5 MG 1/WK FOR 2 WK, Promoter: NONE USED): 11/39 (28%), 14/39 (36%), -29%, not significant
- tumour outcome (control, treated, inhibition, significance) (Carcinogen: N-METHYL-N-NITROSUREA, 684-93-5, Dose [Inhibitor]: 0, 782 MG/KG OF CASEIN BASED AIN-76A DIET FOR DURATION OF STUDY BEGINNING 7 D PRIOR TO CARCINOGEN DOSE (STUDY DURATION:, Route [Inhibitor]: ORAL, Species: RAT, Strain/Sex: F344/FEMALE, Target Tissue: Type of Lesion: MAMMARY GLAND: TUMOR, Dose [Carcinogen]: 45 MG/KG BW ONCE AT 50 D OF AGE, Promoter: NONE USED): 18/25 (72%), 21/25 (84%), -17%, not significant
- tumour outcome (control, treated, inhibition, significance) (Carcinogen: N-NITROSOBIS(2-OXOPROPLYL)AMINE [60599-38-4], DL-ETHIONINE [67-21-0], L-METHIONINE [63-68-3], Carcinogen: N-NITROSOBIS(2-OXOPROPLYL)AMINE [60599-38-4], DL-ETHIONINE [67-21-0], L-METHIONINE [63-68-3], Dose [Inhibitor]: 0, 0.0015% IN DIET FOR 55 D BEGINNING ON DAY 50, 1 WK POST LAST CARCINOGEN DOSE (STUDY DURATION: 105 D), Route [Inhibitor]: ORAL, Species: HAMSTER, Target Tissue: Type of Lesion: LIVER: INTRAHEPATIC CHOLANGIOCARCINOMA, Dose [Carcinogen]: 50 MG/KG BOP ONCE ON DAY 0, THEN 20 MG/KG TWICE ON DAYS 18 AND 32, 500 MG/KG DL-ETHIONINE 1X/D FOR 4 D BEGINNING ON DAY, Dose [Carcinogen]: 50 MG/KG BOP ONCE ON DAY 0, THEN 20 MG/KG TWICE ON DAYS 18 AND 32, 500 MG/KG DL-ETHIONINE 1X/D FOR 4 D BEGINNING ON DAY, Promoter: CHOLINE-DEFICIENT DIET): 7/17 (41%), 8/16 (50%), -22%, not significant
- tumour outcome (control, treated, inhibition, significance) (Carcinogen: N-NITROSOBIS(2-OXOPROPLYL)AMINE [60599-38-4], DL-ETHIONINE [67-21-0], L-METHIONINE [63-68-3], Carcinogen: N-NITROSOBIS(2-OXOPROPLYL)AMINE [60599-38-4], DL-ETHIONINE [67-21-0], L-METHIONINE [63-68-3], Dose [Inhibitor]: 0, 0.0015% IN DIET FOR 55 D BEGINNING ON DAY 50, 1 WK POST LAST CARCINOGEN DOSE (STUDY DURATION: 105 D), Route [Inhibitor]: ORAL, Species: HAMSTER, Target Tissue: Type of Lesion: PANCREATIC DUCT, CARCINOMA, Dose [Carcinogen]: 50 MG/KG BOP ONCE ON DAY 0, THEN 20 MG/KG TWICE ON DAYS 18 AND 32, 500 MG/KG DL-ETHIONINE 1X/D FOR 4 D BEGINNING ON DAY, Dose [Carcinogen]: 50 MG/KG BOP ONCE ON DAY 0, THEN 20 MG/KG TWICE ON DAYS 18 AND 32, 500 MG/KG DL-ETHIONINE 1X/D FOR 4 D BEGINNING ON DAY, Promoter: CHOLINE-DEFICIENT DIET): 17/17 (100%), 15/16 (94%), 6%, not significant
- tumour outcome (control, treated, inhibition, significance) (Carcinogen: N-NITROSOBIS(2-OXOPROPLYL)AMINE [60599-38-4], DL-ETHIONINE [67-21-0], L-METHIONINE [63-68-3], Carcinogen: N-NITROSOBIS(2-OXOPROPLYL)AMINE [60599-38-4], DL-ETHIONINE [67-21-0], L-METHIONINE [63-68-3], Dose [Inhibitor]: 0, 0.004% IN DIET FOR 55 D BEGINNING ON DAY 50, 1 WK POST LAST CARCINOGEN DOSE (STUDY DURATION: 105 D), Route [Inhibitor]: ORAL, Species: HAMSTER, Target Tissue: Type of Lesion: LIVER: INTRAHEPATIC CHOLANGIOCARCINOMA, Dose [Carcinogen]: 50 MG/KG BOP ONCE ON DAY 0, THEN 20 MG/KG TWICE ON DAYS 18 AND 32, 500 MG/KG DL-ETHIONINE 1X/D FOR 4 D BEGINNING ON DAY, Dose [Carcinogen]: 50 MG/KG BOP ONCE ON DAY 0, THEN 20 MG/KG TWICE ON DAYS 18 AND 32, 500 MG/KG DL-ETHIONINE 1X/D FOR 4 D BEGINNING ON DAY, Promoter: CHOLINE-DEFICIENT DIET): 7/17 (41%), 13/19 (68%), -68%, not significant
- tumour outcome (control, treated, inhibition, significance) (Carcinogen: N-NITROSOBIS(2-OXOPROPLYL)AMINE [60599-38-4], DL-ETHIONINE [67-21-0], L-METHIONINE [63-68-3], Carcinogen: N-NITROSOBIS(2-OXOPROPLYL)AMINE [60599-38-4], DL-ETHIONINE [67-21-0], L-METHIONINE [63-68-3], Dose [Inhibitor]: 0, 0.004% IN DIET FOR 55 D BEGINNING ON DAY 50, 1 WK POST LAST CARCINOGEN DOSE (STUDY DURATION: 105 D), Route [Inhibitor]: ORAL, Species: HAMSTER, Target Tissue: Type of Lesion: PANCREATIC DUCT, CARCINOMA, Dose [Carcinogen]: 50 MG/KG BOP ONCE ON DAY 0, THEN 20 MG/KG TWICE ON DAYS 18 AND 32, 500 MG/KG DL-ETHIONINE 1X/D FOR 4 D BEGINNING ON DAY, Dose [Carcinogen]: 50 MG/KG BOP ONCE ON DAY 0, THEN 20 MG/KG TWICE ON DAYS 18 AND 32, 500 MG/KG DL-ETHIONINE 1X/D FOR 4 D BEGINNING ON DAY, Promoter: CHOLINE-DEFICIENT DIET): 17/17 (100%), 19/19 (100%), 0%, not significant
- tumour outcome (control, treated, inhibition, significance) (Carcinogen: N-NITROSOBIS(2-OXOPROPLYL)AMINE [60599-38-4], DL-ETHIONINE [67-21-0], L-METHIONINE [63-68-3], Carcinogen: N-NITROSOBIS(2-OXOPROPLYL)AMINE [60599-38-4], DL-ETHIONINE [67-21-0], L-METHIONINE [63-68-3], Dose [Inhibitor]: 0, 0.01% IN DIET FOR 55 D BEGINNING ON DAY 50, 1 WK POST LAST CARCINOGEN DOSE (STUDY DURATION: 105 D), Route [Inhibitor]: ORAL, Species: HAMSTER, Target Tissue: Type of Lesion: LIVER: INTRAHEPATIC CHOLANGIOCARCINOMA, Dose [Carcinogen]: 50 MG/KG BOP ONCE ON DAY 0, THEN 20 MG/KG TWICE ON DAYS 18 AND 32, 500 MG/KG DL-ETHIONINE 1X/D FOR 4 D BEGINNING ON DAY, Dose [Carcinogen]: 50 MG/KG BOP ONCE ON DAY 0, THEN 20 MG/KG TWICE ON DAYS 18 AND 32, 500 MG/KG DL-ETHIONINE 1X/D FOR 4 D BEGINNING ON DAY, Promoter: CHOLINE-DEFICIENT DIET): 7/17 (41%), 14/17 (82%), -100%, p<0.05
